The structures appear in SMILES notation. Entries after “also recorded” stand apart in the source; their conditions may differ.

Assay [1] has as its system Arabidopsis thaliana Col-0 ecotype. Kind of assay: Soil drought experiment, Arabidopsis. It is filed as in vivo. The note with it: for growth after drought: 5 μM spray, two weeks after the drought, FIG. 12; for survival/growth after drought: 5 μM sprayed once every week, twice in total, four weeks of drought, FIG. 7. On the procedure: Seeds of Arabidopsis Col-0 ecotype were sterilized with NaClO and then sown on ½ MS solid medium at 4° C. for 3 days of vernalization. After 6 days of growing, the well-grown seedlings having uniform size were selected and transferred into 8×7×6 cm^3 pots. Each pot was filled with the same weight of soil and same number of plants (six plants) was transferred to reduce experimental error. All the pots were subjected to a short-day culture at 22° C. After two weeks, watering was stopped for drought treatment. A solution containing 0.05% Tween-20 and 5 μM 0224/0706/0715/0428 or 0.05% Tween-20 and 0.05% DMSO (control) was sprayed onto the leaf surface once per week with a spray amount of 2 ml solution/pot. The position of the flowerpot was changed every day during the process of drought to reduce the error caused by environmental factors. During the whole drought period, the solution was sprayed twice in total and photos were recorded after four weeks.
Arabidopsis thaliana Col-0 ecotype that had been growing in the soil for two weeks was stopped watering, the leaf was sprayed with a solution containing 5 μM compound 0224/0706/0715 or 0.05% DMSO (control) once every week during the drought, with a spray amount of 2 ml solution/pot, twice in total and a 0.05% (v/v) surfactant Tween-20 was added to the solution to enhance the penetrating effect of the spray agent on the leaf epidermis. […] The same method was performed for drought treatment and (+)-ABA or 0428-treated Arabidopsis was photographed two weeks after the drought.

The target of assay [2] is T1, PYL2 receptor-HAB1 complex (Arabidopsis thaliana, UniProt O80992).
T1 construct: made in house; host or cells: E. coli BL21 (DE3)
T1 sequence (O80992 14-188): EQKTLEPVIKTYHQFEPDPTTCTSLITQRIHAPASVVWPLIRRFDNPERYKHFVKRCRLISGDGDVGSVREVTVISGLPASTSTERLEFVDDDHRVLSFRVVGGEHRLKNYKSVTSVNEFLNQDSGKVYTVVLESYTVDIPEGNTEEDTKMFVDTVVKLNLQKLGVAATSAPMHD
T1 sequence (Q9CAJ0 172-511 partner limits assumed): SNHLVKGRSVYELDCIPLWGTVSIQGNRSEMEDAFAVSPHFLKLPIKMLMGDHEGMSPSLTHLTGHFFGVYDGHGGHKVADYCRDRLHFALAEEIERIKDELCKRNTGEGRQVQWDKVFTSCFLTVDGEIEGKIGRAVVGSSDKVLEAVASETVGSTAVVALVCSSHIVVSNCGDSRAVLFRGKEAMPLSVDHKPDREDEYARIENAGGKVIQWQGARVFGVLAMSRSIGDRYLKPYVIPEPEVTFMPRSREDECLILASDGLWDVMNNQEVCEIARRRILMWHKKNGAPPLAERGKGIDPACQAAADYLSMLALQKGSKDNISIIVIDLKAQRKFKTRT
The assay is described as follows: HAB1 phosphatase activity assay (SnRK2.6 phosphorylated polypeptide as substrate). The note with it: FIG. 1a-1g; 100 nM HAB1, 500 nM PYL2. Format: biochemical. On the procedure:
50 mM imidazole, pH 7.2, 5 mM MgCl2, 0.1% β-mercaptoethanol, 0.5 μg·ml^−1 BSA, 100 nM HAB1 protein with a Biotin tag sequence, 500 nM PYL2 receptor protein with 6×His-SUMO dual tag sequence and the corresponding concentration of (+)-ABA/0224/0304/0706/0708/0713/0715/1028c/0428/1022B/NC0F4 were contained in the reaction system. The reaction system was incubated at room temperature for 30 minutes, followed by a further reaction for 30 minutes after adding an 11-amino acid phosphorylated polypeptide as a substrate. The phosphorylated polypeptide is amino acid 170-180 of SnRK2.6 protein kinase, wherein phosphorylated serine at position 175 (with a sequence of HSQPKpSTVGTP, purchased from Kingsley Company) was a known HAB1 dephosphorylation target site. After 30 minutes, chromogenic reagent (purchased from BioVision) was added and the absorbance at 650 nm was read on a microplate reader (Molecular Devices).

Regarding `CC1=CC(=O)CC(C)(C)[C@@]1(O)/C=C/C(C)=C\C(=O)O` [ABA, Abscisic Acid, reference compound], the growth after drought result in assay [1] was “had no difference from that of plants in the DMSO-sprayed control group”. In the case of `CCCN1C(=O)OC(C)c2cc(NS(=O)(=O)Cc3c(F)c(F)c(C)c(F)c3F)ccc21` (stereo not shown) [Compound 0224], the survival/growth after drought entry in assay [1] is on record as “still grows normally; also recorded: still survived”. The “inhibition of HAB1 protein phosphatase activity by promoting binding between PYL2 receptor and HAB1” value (“inhibition” for short) in assay [2] was “inhibiting the activity of protein phosphatase HAB1; also recorded: inhibiting the dephosphorylation effect of HAB1 on SnRK2.6 phosphorylated polypeptide”. Turning to `CCCN1C(=O)OC(C)(C)c2cc(NS(=O)(=O)Cc3c(F)c(F)c(C)c(F)c3F)ccc21` [Compound 0304], the “inhibition” value in assay [2] is given as “inhibiting the activity of protein phosphatase HAB1; also recorded: inhibiting the dephosphorylation effect of HAB1 on SnRK2.6 phosphorylated polypeptide”. Turning to `CCCN1C(=O)OCc2cc(NS(=O)(=O)Cc3c(F)c(F)c(C)c(F)c3F)ccc21` [Compound 0428], in assay [1], the growth after drought result is “exhibits a better growth condition than that in the control group and that sprayed with ABA; also recorded: significantly better than that of plants in DMSO-sprayed control group and plants sprayed with 5 μM (+)-ABA”. Besides, the “inhibition” value in assay [2] is listed as “inhibiting the activity of protein phosphatase HAB1; also recorded: inhibiting the dephosphorylation effect of HAB1 on SnRK2.6 phosphorylated polypeptide”.

As for `CCN1C(=O)OC(C)c2cc(NS(=O)(=O)Cc3c(F)c(F)c(C)c(F)c3F)ccc21` (stereo not shown) [Compound 0706], the survival/growth after drought result in assay [1] is given as “still grows normally; also recorded: still survived”. Also, the “inhibition” value in assay [2] is “inhibiting the activity of protein phosphatase HAB1; also recorded: inhibiting the dephosphorylation effect of HAB1 on SnRK2.6 phosphorylated polypeptide”. On the same counts, the results for `Cc1c(F)c(F)c(CS(=O)(=O)Nc2ccc3c(c2)C(C)OC(=O)N3CCCF)c(F)c1F` (stereo not shown) [Compound 0715] are “still grows normally; also recorded: still survived” and “inhibiting the activity of protein phosphatase HAB1; also recorded: inhibiting the dephosphorylation effect of HAB1 on SnRK2.6 phosphorylated polypeptide”.

The values are drawn from patent US11076597B2, “High stress resistant plant growth regulator and preparation method and use thereof” (SHANGHAI INSTITUTES FOR BIOLOGICAL SCIENCES, CHINESE …, priority 2015, dated 2021).
